Source: ChEMBL document CHEMBL1137456, “The synthesis and biological activity of pentafluorosulfanyl analogs of fluoxetine, fenfluramine, and norfenfluramine” (Bioorg Med Chem, 2007)

biological target: 5-hydroxytryptamine receptor 2B (Homo sapiens) (UniProt P41595); assay: Inhibition of human 5HT2B expressed in COS7 cells at 10 uM; assay type: cell-based; conditions: COS-7
Sequence (P41595 whole entry): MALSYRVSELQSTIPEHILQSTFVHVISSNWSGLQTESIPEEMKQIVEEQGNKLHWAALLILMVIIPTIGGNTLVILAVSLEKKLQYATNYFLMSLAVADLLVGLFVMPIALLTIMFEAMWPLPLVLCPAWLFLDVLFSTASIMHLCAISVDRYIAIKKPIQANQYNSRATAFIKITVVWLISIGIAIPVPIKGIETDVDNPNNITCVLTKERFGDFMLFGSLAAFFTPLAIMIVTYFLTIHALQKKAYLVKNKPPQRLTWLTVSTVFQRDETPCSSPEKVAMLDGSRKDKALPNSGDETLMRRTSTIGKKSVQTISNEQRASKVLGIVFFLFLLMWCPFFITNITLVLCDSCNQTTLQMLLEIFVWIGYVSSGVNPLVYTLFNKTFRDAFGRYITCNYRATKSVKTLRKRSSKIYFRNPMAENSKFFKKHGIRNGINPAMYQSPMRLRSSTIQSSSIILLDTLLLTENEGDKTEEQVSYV

| Structure (SMILES) | inhibition |
| --- | --- |
| CC(N)Cc1cccc(S(F)(F)(F)(F)F)c1 (stereo not drawn) | 89.6% |
| CNCCC(Oc1ccc(S(F)(F)(F)(F)F)cc1)c1ccccc1 (stereo not drawn) | 71.9% |
| CCNC(C)Cc1cccc(S(F)(F)(F)(F)F)c1 (stereo not drawn) | 85.3% |

biological target: 5-hydroxytryptamine receptor 5A (Homo sapiens) (UniProt P47898); assay: Inhibition of human 5HT5A expressed in COS7 cells at 10 uM; assay type: cell-based; conditions: COS-7
Sequence (P47898 whole entry): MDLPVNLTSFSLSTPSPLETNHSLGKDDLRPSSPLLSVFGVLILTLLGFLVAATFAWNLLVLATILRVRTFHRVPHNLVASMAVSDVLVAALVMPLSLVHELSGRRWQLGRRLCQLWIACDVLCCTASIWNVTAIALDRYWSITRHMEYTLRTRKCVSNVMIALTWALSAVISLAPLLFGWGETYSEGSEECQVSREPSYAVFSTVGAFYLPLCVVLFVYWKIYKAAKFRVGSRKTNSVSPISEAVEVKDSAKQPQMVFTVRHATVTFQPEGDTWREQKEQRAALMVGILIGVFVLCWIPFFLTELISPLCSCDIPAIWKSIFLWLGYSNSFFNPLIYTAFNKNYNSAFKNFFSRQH

| Structure (SMILES) | inhibition |
| --- | --- |
| CC(N)Cc1cccc(S(F)(F)(F)(F)F)c1 (stereo not drawn) | 31.3% |
| CNCCC(Oc1ccc(S(F)(F)(F)(F)F)cc1)c1ccccc1 (stereo not drawn) | 25% |
| CCNC(C)Cc1cccc(S(F)(F)(F)(F)F)c1 (stereo not drawn) | 62.7% |

biological target: T1, 5-hydroxytryptamine receptor 2C (Rattus norvegicus) (UniProt P08909); assay: Inhibition of rat 5HT2C expressed in COS7 cells at 10 uM; assay type: cell-based; conditions: COS-7
T1 sequence (whole entry): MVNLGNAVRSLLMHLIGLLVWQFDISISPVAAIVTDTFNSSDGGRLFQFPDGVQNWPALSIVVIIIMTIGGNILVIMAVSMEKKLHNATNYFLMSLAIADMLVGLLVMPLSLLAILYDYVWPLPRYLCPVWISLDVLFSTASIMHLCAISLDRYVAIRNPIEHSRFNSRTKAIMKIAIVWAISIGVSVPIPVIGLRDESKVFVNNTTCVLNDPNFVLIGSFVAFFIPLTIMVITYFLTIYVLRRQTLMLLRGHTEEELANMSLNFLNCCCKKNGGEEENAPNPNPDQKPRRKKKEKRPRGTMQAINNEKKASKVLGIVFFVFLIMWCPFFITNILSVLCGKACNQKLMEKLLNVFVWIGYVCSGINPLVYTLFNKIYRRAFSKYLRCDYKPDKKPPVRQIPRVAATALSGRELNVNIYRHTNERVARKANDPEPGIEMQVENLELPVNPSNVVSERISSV

| Structure (SMILES) | inhibition |
| --- | --- |
| CC(N)Cc1cccc(S(F)(F)(F)(F)F)c1 (stereo not drawn) | 94.6% |
| CNCCC(Oc1ccc(S(F)(F)(F)(F)F)cc1)c1ccccc1 (stereo not drawn) | 75.8% |
| CCNC(C)Cc1cccc(S(F)(F)(F)(F)F)c1 (stereo not drawn) | 72.8% |

biological target: T2, 5-hydroxytryptamine receptor 1A (Homo sapiens) (UniProt P08908); assay: Inhibition of human 5HT1A expressed in COS7 cells at 10 uM; assay type: cell-based; conditions: COS-7
T2 sequence (whole entry): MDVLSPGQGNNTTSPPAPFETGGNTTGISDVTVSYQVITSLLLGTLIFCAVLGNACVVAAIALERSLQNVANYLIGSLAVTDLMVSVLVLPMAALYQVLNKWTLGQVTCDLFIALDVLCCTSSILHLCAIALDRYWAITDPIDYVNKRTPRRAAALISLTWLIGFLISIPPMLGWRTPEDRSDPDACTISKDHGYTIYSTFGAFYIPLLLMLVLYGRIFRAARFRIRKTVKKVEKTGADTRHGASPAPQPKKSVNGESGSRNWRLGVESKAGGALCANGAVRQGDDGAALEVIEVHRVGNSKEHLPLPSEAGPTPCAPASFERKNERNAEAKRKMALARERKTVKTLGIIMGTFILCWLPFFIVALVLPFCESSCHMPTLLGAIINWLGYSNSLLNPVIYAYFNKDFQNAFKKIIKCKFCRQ

| Structure (SMILES) | inhibition |
| --- | --- |
| CC(N)Cc1cccc(S(F)(F)(F)(F)F)c1 (stereo not drawn) | 50% |
| CNCCC(Oc1ccc(S(F)(F)(F)(F)F)cc1)c1ccccc1 (stereo not drawn) | -3% |
| CCNC(C)Cc1cccc(S(F)(F)(F)(F)F)c1 (stereo not drawn) | 85.5% |

biological target: 5-hydroxytryptamine receptor 6 (Homo sapiens) (UniProt P50406); assay: Inhibition of human 5HT6 expressed in COS7 cells at 10 uM; assay type: cell-based; conditions: COS-7
Sequence (P50406 whole entry): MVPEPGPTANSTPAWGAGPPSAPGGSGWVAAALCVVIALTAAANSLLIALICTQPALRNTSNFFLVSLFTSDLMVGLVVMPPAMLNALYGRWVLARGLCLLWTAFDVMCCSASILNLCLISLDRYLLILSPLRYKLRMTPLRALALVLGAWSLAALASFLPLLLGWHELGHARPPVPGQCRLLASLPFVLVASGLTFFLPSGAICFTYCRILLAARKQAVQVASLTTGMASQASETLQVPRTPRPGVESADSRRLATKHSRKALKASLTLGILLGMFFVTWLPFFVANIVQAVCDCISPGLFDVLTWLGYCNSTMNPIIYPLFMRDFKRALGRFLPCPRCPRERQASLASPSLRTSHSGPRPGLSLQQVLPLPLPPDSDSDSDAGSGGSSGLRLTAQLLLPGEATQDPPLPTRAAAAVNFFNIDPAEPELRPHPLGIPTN

| Structure (SMILES) | inhibition |
| --- | --- |
| CC(N)Cc1cccc(S(F)(F)(F)(F)F)c1 (stereo not drawn) | 50% |
| CNCCC(Oc1ccc(S(F)(F)(F)(F)F)cc1)c1ccccc1 (stereo not drawn) | 1.5% |
| CCNC(C)Cc1cccc(S(F)(F)(F)(F)F)c1 (stereo not drawn) | 50% |

biological target: 5-hydroxytryptamine receptor 1D (Homo sapiens) (UniProt P28221); assay: Inhibition of human 5HT1D expressed in COS7 cells at 10 uM; assay type: cell-based; conditions: COS-7
Sequence (P28221 whole entry): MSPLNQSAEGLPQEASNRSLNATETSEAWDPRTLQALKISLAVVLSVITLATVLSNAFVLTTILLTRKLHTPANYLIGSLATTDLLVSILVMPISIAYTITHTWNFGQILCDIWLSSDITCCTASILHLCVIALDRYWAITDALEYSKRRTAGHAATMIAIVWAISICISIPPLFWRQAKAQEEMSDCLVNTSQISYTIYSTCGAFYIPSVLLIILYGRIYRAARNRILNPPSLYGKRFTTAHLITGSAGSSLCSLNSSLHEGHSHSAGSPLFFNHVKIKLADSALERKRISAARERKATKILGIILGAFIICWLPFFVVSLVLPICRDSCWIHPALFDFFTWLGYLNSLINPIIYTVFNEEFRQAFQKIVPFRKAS

| Structure (SMILES) | inhibition |
| --- | --- |
| CC(N)Cc1cccc(S(F)(F)(F)(F)F)c1 (stereo not drawn) | 73.7% |
| CNCCC(Oc1ccc(S(F)(F)(F)(F)F)cc1)c1ccccc1 (stereo not drawn) | 12.7% |
| CCNC(C)Cc1cccc(S(F)(F)(F)(F)F)c1 (stereo not drawn) | 15.2% |

biological target: 5-hydroxytryptamine receptor 7 (Homo sapiens) (UniProt P34969); assay: Inhibition of human 5HT7 expressed in COS7 cells at 10 uM; assay type: cell-based; conditions: COS-7
Sequence (P34969 whole entry): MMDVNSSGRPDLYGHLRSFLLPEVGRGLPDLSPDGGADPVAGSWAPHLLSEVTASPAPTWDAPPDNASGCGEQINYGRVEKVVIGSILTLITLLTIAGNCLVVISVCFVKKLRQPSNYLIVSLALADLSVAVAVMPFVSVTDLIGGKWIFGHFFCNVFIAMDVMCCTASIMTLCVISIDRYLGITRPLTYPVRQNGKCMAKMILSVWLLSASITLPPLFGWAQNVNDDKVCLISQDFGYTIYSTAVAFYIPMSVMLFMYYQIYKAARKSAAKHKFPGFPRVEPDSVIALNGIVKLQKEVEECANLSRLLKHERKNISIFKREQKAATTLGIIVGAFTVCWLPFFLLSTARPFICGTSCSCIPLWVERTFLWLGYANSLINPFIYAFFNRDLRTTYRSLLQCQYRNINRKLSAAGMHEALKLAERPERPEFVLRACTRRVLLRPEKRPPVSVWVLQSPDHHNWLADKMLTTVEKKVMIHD

| Structure (SMILES) | inhibition |
| --- | --- |
| CC(N)Cc1cccc(S(F)(F)(F)(F)F)c1 (stereo not drawn) | 50% |
| CNCCC(Oc1ccc(S(F)(F)(F)(F)F)cc1)c1ccccc1 (stereo not drawn) | 12% |
| CCNC(C)Cc1cccc(S(F)(F)(F)(F)F)c1 (stereo not drawn) | 50% |

biological target: 5-hydroxytryptamine receptor 2A (Rattus norvegicus) (UniProt P14842); assay: Inhibition of rat 5HT2A expressed in COS7 cells at 10 uM; assay type: cell-based; conditions: COS-7
Sequence (P14842 whole entry): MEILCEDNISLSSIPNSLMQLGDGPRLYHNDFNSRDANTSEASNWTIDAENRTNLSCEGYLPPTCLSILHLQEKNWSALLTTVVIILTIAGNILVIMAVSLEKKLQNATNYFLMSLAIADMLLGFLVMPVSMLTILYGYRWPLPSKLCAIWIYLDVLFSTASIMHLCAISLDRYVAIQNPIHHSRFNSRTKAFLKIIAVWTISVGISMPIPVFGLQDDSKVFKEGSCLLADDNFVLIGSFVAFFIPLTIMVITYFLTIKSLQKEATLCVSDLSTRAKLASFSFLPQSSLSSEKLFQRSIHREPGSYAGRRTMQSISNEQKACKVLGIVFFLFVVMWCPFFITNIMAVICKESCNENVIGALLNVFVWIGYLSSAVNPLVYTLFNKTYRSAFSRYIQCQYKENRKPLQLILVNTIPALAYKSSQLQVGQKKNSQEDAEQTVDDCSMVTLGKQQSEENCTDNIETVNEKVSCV

| Structure (SMILES) | inhibition |
| --- | --- |
| CC(N)Cc1cccc(S(F)(F)(F)(F)F)c1 (stereo not drawn) | 85.9% |
| CNCCC(Oc1ccc(S(F)(F)(F)(F)F)cc1)c1ccccc1 (stereo not drawn) | 97.3% |
| CCNC(C)Cc1cccc(S(F)(F)(F)(F)F)c1 (stereo not drawn) | 53.2% |

biological target: 5-hydroxytryptamine receptor 1B (Homo sapiens) (UniProt P28222); assay: Inhibition of human 5HT1B expressed in COS7 cells at 10 uM; assay type: cell-based; conditions: COS-7
Sequence (P28222 whole entry): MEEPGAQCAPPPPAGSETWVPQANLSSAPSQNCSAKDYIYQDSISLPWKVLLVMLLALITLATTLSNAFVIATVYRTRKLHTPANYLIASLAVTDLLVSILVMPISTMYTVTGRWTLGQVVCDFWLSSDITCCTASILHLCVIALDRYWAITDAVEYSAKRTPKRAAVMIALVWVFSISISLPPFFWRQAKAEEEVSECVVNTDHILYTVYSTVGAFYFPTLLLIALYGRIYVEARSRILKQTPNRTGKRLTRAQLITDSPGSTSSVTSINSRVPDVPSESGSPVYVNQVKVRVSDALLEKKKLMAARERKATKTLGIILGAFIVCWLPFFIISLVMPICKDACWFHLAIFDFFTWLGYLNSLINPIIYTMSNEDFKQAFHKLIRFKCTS

| Structure (SMILES) | inhibition |
| --- | --- |
| CC(N)Cc1cccc(S(F)(F)(F)(F)F)c1 (stereo not drawn) | 62.9% |
| CNCCC(Oc1ccc(S(F)(F)(F)(F)F)cc1)c1ccccc1 (stereo not drawn) | 3.4% |
| CCNC(C)Cc1cccc(S(F)(F)(F)(F)F)c1 (stereo not drawn) | 63.5% |

biological target: 5-hydroxytryptamine receptor 1E (Homo sapiens) (UniProt P28566); assay: Inhibition of human 5HT1E expressed in COS7 cells at 10 uM; assay type: cell-based; conditions: COS-7
Sequence (P28566 whole entry): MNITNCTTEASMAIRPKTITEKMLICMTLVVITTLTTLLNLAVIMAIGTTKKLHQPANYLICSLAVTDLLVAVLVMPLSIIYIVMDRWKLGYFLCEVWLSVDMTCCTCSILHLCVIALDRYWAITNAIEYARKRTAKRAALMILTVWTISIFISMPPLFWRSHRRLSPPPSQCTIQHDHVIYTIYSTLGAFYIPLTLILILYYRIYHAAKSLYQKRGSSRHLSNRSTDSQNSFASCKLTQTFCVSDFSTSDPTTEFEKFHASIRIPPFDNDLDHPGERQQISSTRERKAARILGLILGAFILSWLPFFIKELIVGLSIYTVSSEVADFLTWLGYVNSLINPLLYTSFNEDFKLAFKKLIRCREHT

| Structure (SMILES) | inhibition |
| --- | --- |
| CC(N)Cc1cccc(S(F)(F)(F)(F)F)c1 (stereo not drawn) | 23.4% |
| CNCCC(Oc1ccc(S(F)(F)(F)(F)F)cc1)c1ccccc1 (stereo not drawn) | 77.8% |
| CCNC(C)Cc1cccc(S(F)(F)(F)(F)F)c1 (stereo not drawn) | 7.3% |

biological target: T3, 5-hydroxytryptamine receptor 3A (Homo sapiens) (UniProt P46098); assay: Inhibition of human 5HT3 expressed in COS7 cells at 10 uM; assay type: cell-based; conditions: COS-7
T3 sequence (whole entry): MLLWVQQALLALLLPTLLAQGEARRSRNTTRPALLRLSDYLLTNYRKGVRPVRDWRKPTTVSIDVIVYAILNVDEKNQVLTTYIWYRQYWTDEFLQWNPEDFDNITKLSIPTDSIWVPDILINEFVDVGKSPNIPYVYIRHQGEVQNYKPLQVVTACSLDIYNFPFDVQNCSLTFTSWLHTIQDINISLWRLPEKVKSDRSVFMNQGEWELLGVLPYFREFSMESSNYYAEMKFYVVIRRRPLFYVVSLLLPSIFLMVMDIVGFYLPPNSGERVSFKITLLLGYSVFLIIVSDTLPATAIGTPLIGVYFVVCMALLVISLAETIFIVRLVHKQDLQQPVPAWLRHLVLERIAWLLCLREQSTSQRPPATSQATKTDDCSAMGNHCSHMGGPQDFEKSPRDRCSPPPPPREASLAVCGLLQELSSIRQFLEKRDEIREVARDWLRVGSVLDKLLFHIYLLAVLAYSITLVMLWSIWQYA

| Structure (SMILES) | inhibition |
| --- | --- |
| CC(N)Cc1cccc(S(F)(F)(F)(F)F)c1 (stereo not drawn) | -6.1% |
| CNCCC(Oc1ccc(S(F)(F)(F)(F)F)cc1)c1ccccc1 (stereo not drawn) | 6.8% |
| CCNC(C)Cc1cccc(S(F)(F)(F)(F)F)c1 (stereo not drawn) | 14.6% |
